Patent publication US20260224460A1, “A PERSONAL CARE COMPOSITION” (Conopco, Inc., d/b/a UNILEVER, priority 2023, published 2026)

System: Collagen1 gene expression (COL1A1) in WS1 cells
Experiment: Collagen1 (COL1A1) gene expression by real time PCR in WS1 human dermal fibroblasts
Format: cell-based
Conditions: Table 1, 24 hours treatment, actives in wt %, fold change vs untreated control (1.0), normalized to GAPDH, delta delta Ct
Protocol: Experiments were carried out to study gene expression of Collagen1 with actives as shown in Table-1 individually and in combination and the data is 12ummarized therein. The methodology used to measure the gene expression is given below:
WS1 cells (human dermal fibroblasts) were grown and maintained in high glucose DMEM (HIMEDIA cat No AL219A) supplemented with 0.03 mM Calcium chloride, 1 mM sodium pyruvate and 10% FBS (Fetal Bovine Serum) at 37° C. with 5% CO2. 80% confluent cells were trypsinized and plated in 24 well plate at a density of 50,000 cells/well. The cells were incubated at 37° C. with 5% CO2 for 24 hours. Post incubation, the cells were treated with arginine (0.005%) and varying concentration of pimelic acid, dimethyl pimelate, suberic acid. Azelaic acid (0.0001, 0.001, 0.005%). 24 hours after treatment the cells were harvested for RNA extraction. RNA was extracted using Qiagen RNA extraction kit (Cat No: 74004) as per the instructions given in the kit. After extraction of RNA, cDNA synthesis was done using iscript cDNA synthesis kit (Biorad Cat no: 1708890). […] of RNA was used for cDNA synthesis. cDNA template synthesized was used for gene expression studies.
Quantification of collagen gene expression was carried out using real time PCR. […] of cDNA was used for setting up the reaction. The PCR reaction mix had […] each of forward and reverse primer, […] of PCR master mix (Sigma Cat No: KCQS00). Amplification was carried out at 95° C. for 30 seconds as the first step, followed by 40 cycles of qRT-PCR at 95° C. for 5 seconds, and at 60° C. for 20 seconds. mRNA expression was measured in triplicate and was normalized to GAPDH (glyceraldehyde 3-phosphate dehydrogenase) expression levels. The relative quantification was done using delta delta Ct method. The primers used in the study are COL1A1 forward primer 5′-[…]-3′, COL1A1 reverse primer 5′-[…]-3′, GAPDH forward primer 5′-[…]-3′, reverse primer 5′-[…]-3′. The relative quantification of gene expression was done after normalization using house keeping gene (GAPDH) and comparing with untreated control.
The fold change of gene ‘expression obtaine’ from cells treated with’ combination of test actives were compared with the gene expression obtained from cells treated with individual ingredients.

| SMILES | Gene expression (Collagen1) |
| --- | --- |
| O=C(O)CCCCCC(=O)O [Example B1, Pimelic acid] | 1.1 |
| O=C(O)CCCCCCC(=O)O [Example D2, Suberic acid] | 2.9 |
| O=C(O)CCCCCCC(=O)O [Example D3, Suberic acid] | 1.3 |
| COC(=O)CCCCCC(=O)OC [Example C1, Dimethyl pimelate] | 1.2 |
| O=C(O)CCCCCC(=O)O [Example B3, Pimelic acid] | 3.2 |
| O=C(O)CCCCCCCC(=O)O [Example E2, Azeleic acid] | 1.6 |
| O=C(O)CCCCCCCC(=O)O [Example E3, Azeleic acid] | 1.9 |
| O=C(O)CCCCCCCC(=O)O [Example E1, Azeleic acid] | 1.4 |
| N=C(N)NCCCC(N)C(=O)O (centres unmarked) [Example A, Arginine] | 1.9 |
| O=C(O)CCCCCCC(=O)O [Example D1, Suberic acid] | 1.6 |
| O=C(O)CCCCCC(=O)O [Example B2, Pimelic acid] | 2.8 |
| COC(=O)CCCCCC(=O)OC [Example C2, Dimethyl pimelate] | 2.5 |
| COC(=O)CCCCCC(=O)OC [Example C3, Dimethyl pimelate] | 3.8 |

System: Collagen1 gene expression (COL1A1) in WS1 cells
Experiment: as above
Format: cell-based
Conditions: Table 2 (lysine series), 24 hours treatment, actives in wt %, fold change vs untreated control (1.0), normalized to GAPDH

| SMILES | Gene expression (Collagen1) |
| --- | --- |
| O=C(O)CCCCCCC(=O)O [Example J2, Suberic acid] | 2.8 |
| O=C(O)CCCCCC(=O)O [Example G1, Pimelic acid] | 1.1 |
| O=C(O)CCCCCCC(=O)O [Example J1, Suberic acid] | 1.7 |
| O=C(O)CCCCCC(=O)O [Example G3, Pimelic acid] | 3.0 |
| O=C(O)CCCCCCCC(=O)O [Example K2, Azeleic acid] | 1.6 |
| COC(=O)CCCCCC(=O)OC [Example H2, Dimethyl pimelate] | 2.4 |
| COC(=O)CCCCCC(=O)OC [Example H1, Dimethyl pimelate] | 1.2 |
| O=C(O)CCCCCCC(=O)O [Example J3, Suberic acid] | 1.4 |
| O=C(O)CCCCCCCC(=O)O [Example K1, Azeleic acid] | 1.3 |
| NCCCC[C@H](N)C(=O)O [F, Lysine] | 0.8 |
| COC(=O)CCCCCC(=O)OC [Example H3, Dimethyl pimelate] | 3.7 |
| O=C(O)CCCCCC(=O)O [Example G2, Pimelic acid] | 2.4 |
| O=C(O)CCCCCCCC(=O)O [Example K3, Azeleic acid] | 2.0 |

Same assay, conditions: Table 3 (additional weight ratios 2:1, 4:1, 25:1), 24 hours treatment, actives in wt %, fold change vs untreated control (1.0), normalized to GAPDH

| SMILES | Gene expression (Collagen1) |
| --- | --- |
| COC(=O)CCCCCC(=O)OC [Example N3, Dimethyl pimelate] | 2.5 |
| N=C(N)NCCCC(N)C(=O)O (centres unmarked) [Example L2, Arginine] | 3.3 |
| O=C(O)CCCCCC(=O)O [Example M3, Pimelic acid] | 2.7 |
| O=C(O)CCCCCCCC(=O)O [Example P2, Azelaic acid] | 2.4 |
| O=C(O)CCCCCCC(=O)O [Example O1, Suberic acid] | 2.7 |
| COC(=O)CCCCCC(=O)OC [Example N1, Dimethyl pimelate] | 2.2 |
| O=C(O)CCCCCCC(=O)O [Example O3, Suberic acid] | 2.5 |
| O=C(O)CCCCCCCC(=O)O [Example P3, Azelaic acid] | 1.6 |
| O=C(O)CCCCCC(=O)O [Example M2, Pimelic acid] | 3.9 |
| N=C(N)NCCCC(N)C(=O)O (centres unmarked) [Example L1, Arginine] | 1.5 |
| O=C(O)CCCCCCCC(=O)O [Example P1, Azelaic acid] | 1.7 |
| COC(=O)CCCCCC(=O)OC [Example N2, Dimethyl pimelate] | 3.5 |
| O=C(O)CCCCCCC(=O)O [Example O2, Suberic acid] | 3.7 |
| N=C(N)NCCCC(N)C(=O)O (centres unmarked) [Example L3, Arginine] | 4.4 |
| O=C(O)CCCCCC(=O)O [Example M1, Pimelic acid] | 3.0 |
